# Measurements taken from US20060293395A1, “Methods for treating a mammal before, during and after cardiac arrest” (priority 2004, published 2006).
# “Also recorded” adds a separate entry of the source.
# Columns and labels:
# Male Sprague-Dawley rats [1] = experiment: Example 2: dobutamine vs levosimendan for post-resuscitation myocardial failure, 8 min untreated VF + 6 min precordial compression; format: in vivo, rat
# Experimental: The animals were anesthetized following intraperitoneal injection of 45 mg kg^−1 pentobarbital. […] No anesthetic agent was administrated during the 30 minute interval prior to inducing cardiac arrest.
# Pressures were measured with a high sensitivity pressure transducer (Model 42584-01; Abbott Critical Care System, North Chicago, Ill.). The optimally damped frequency response of the system was 22 Hz. […] Guided by pressure monitoring, the catheter was slowly withdrawn into the right atrium. Right atrial pressure was measured with reference to the mid-chest with another high sensitivity pressure transducer (Abbott model 42584-01). This catheter also served as an injection site for the thermal tracer. A 4 F polyethylene catheter (model C-PMS401J; Cook Critical Care, Bloomington, Ind.) was advanced through the right external jugular vein into the right atrium. A precurved guide wire supplied with the catheter was then advanced through the catheter into the right ventricle until an endocardial electrogram was observed. Another 23-gauge polyethylene catheter (PE 50) was advanced through the left femoral artery into the abdominal aorta for measurement of aortic pressure with the same Abbott high sensitivity transducer and also for sampling arterial blood. […] The thermocouple provided for measurements of blood temperature and thermodilution cardiac output. […] An additional PE 50 catheter was advanced into right femoral vein for drug infusion. EKG lead II was continuously recorded.
# Experimental Procedure: A total of 15 animals were investigated. The investigators were blinded to the intervention until immediately prior to inducing VF, at which time the principal investigator opened a sealed envelope for assignment to one of three groups: (1) levosimendan (2) dobutamine or (3) saline placebo. This allowed time for preparation of a fresh dilution of the selected drug. […] Current flow was continued for 3 minutes to prevent spontaneous defibrillation as previously described (Von Planta I, Weil MH. Cardiopulmonary resuscitation in the rat. J Appl Physiol. 1988;65(6):2641-2647). Ventilation was discontinued after onset of VF. Precordial compression was begun with a pneumatically driven mechanical chest compressor after 8 minutes of untreated VF and continued for 6 minutes. These methods have been extensively exercised and have been well-documented (see Von Plata I (supra)) and Sun SJ, Weil MH, Tang W, et al. Combined effects of buffer and adrenergic agent on postresuscitation myocardial function. J Pharm Exp Ther. 1999;291 :773-777). Coincident with the start of precordial compression, the animals were mechanically ventilated. Tidal volume was established at 6.5 ml per kg animal weight, a frequency of 100 min^−1, and on a FiO2 of 1.0.
# male domestic pigs [2] = experiment: Example 3: dobutamine vs levosimendan in the porcine model of cardiac arrest and cardiac resuscitation; format: in vivo, pig
# Experimental: Experimental Preparation: The experiments were performed in the porcine model of cardiac arrest and cardiac resuscitation which has been extensively exercised. (21,22). […] Anesthesia was initiated by intramuscular injection of ketamine (20 mg kg^−1) and was completed by ear vein injection of sodium pentobarbital (30 mg kg^−1). Additional 8 mg kg^−1 doses of sodium pentobarbital were injected to maintain anesthesia at intervals of one hour. A cuffed endotracheal tube was advanced into the trachea. Animals were mechanically ventilated with a volume of 15 mL kg^−1, peak airway flow of 40 L min^−1, and FiO2 of 0.2 with the aid of a volume-controlled ventilator (Model MA-1, Puritan-Bennett, Carlsbad, Calif.). End-tidal PCO2 (PETCO2) was monitored with an infrared analyzer (Model 01R-7101A, Nihon Kohden Corp, Tokyo, Japan). Respiratory frequency was adjusted to maintain PETCO2 between 35 and 40 mmHg. Blood temperature was maintained at 37±0.5° C. with the aid of infrared heating lamps, as required.
# For the measurement of left ventricular functions, a 5.5/7.5 MHz biplane with pulse-wave Doppler transesophageal echocardiographic tranducer with 4-way flexure (Model 21363A, Hewlett-Packard Co. Medical Products Group, Andover, Mass.) was advanced from the incisor teeth into the esophagus for a distance of approximately 40 cm. For the measurement of aortic pressure, a fluid filled catheter was advanced from the surgically exposed left femoral artery into the thoracic aorta. For measurements of right atrial and pulmonary arterial pressures, blood temperature and cardiac output, a 7-French, pentalumen, thermodilution-tipped catheter was advanced from the surgically exposed left femoral vein and flow-directed into the pulmonary artery. For inducing VF, a 5-French pacing catheter (EP Techologies, Inc., Mountain View, Calif.) was advanced from the surgically exposed right cephalic vein into the right ventricle. […] This catheter was then looped laterally and advanced inferiorly for a distance of 5 cm into the great cardiac vein for sampling of coronary venous blood. The electrocardiographic (EKG) lead II was continuously recorded.
# Experimental procedure: A total 15 animals were investigated. […] Cardiac arrest was induced with 1 to 2 mA AC delivered to the endocardium of the right ventricle. Mechanical ventilation was discontinued after onset of VF. At the end of a 7-minute interval of untreated VF, precordial compression (PC) was started with a pneumatic piston-driven chest compressor (Thumper, Model 1000, Michigan Instruments, Grand Rapids, Mich.). Coincident with the start of PC, the animal was mechanically ventilated with a tidal volume of […] and FiO2 of 1.0. […] The compression force was adjusted to decrease the anterior-posterior diameter of the chest by 25%. After 5 minutes of PC, defibrillation was attempted with a 150 J biphasic waveform shock delivered between the right infraclavicular area and the cardiac apex. If an organized cardiac rhythm with mean aortic pressure of more than 60 mm Hg persisted for an interval of 5 minutes or more, the animal was regarded as successfully resuscitated. At 10 minutes after restoration of spontaneous circulation (ROSC), one of the three interventions was begun. […] Levosimendan diluted in physiological salt solution was administered in a loading dose of 20 μg kg^−1, infused over 10 minutes, followed by infusion of 0.4 μg kg^−1 min^−1 also in physiologic salt solution for a total duration of 230 minutes.
# Male Sprague-Dawley rats [3] = experiment: Example 1: post-resuscitation myocardial dysfunction after VF cardiac arrest, drug infusion for 240 min post-resuscitation
# male domestic pigs [4] = experiment: Levosimendan on post-resuscitation myocardial function after beta-adrenergic blockade (propranolol); format: in vivo, pig
# Experimental: Anesthesia was initiated by intramuscular injection of ketamine (20 mg/kg) and completed by ear vein injection of sodium pentobarbital (30 mg/kg). Additional doses of sodium pentobarbital (8 mg/kg) were injected to maintain anesthesia at intervals of one hour. A cuffed endotracheal tube was advanced into the trachea. Animals were mechanically ventilated with a volume-controlled ventilator (Model MA-1, Puritan-Bennett, Carlsbad, Calif.) with a tidal volume of 15 mL/kg, peak flow of 40 L/min, and FiO2 of 0.21. End-tidal PCO2 (ETCO2) was monitored with an infrared analyzer (Model 01R-7101A, Nihon Kohden Corp, Tokyo, Japan). Respiratory frequency was adjusted to maintain PETCO2 between 35 and 40 mm Hg.
# For the measurement of left ventricular functions, a 5.5/7.5 […] biplane with Doppler transesophageal echocardiographic transducer with 4-way flexure (Model 21363A, Hewlett-Packard Co., Medical Products Group, Andover, Mass.) was advanced from the incisor teeth into the esophagus for a distance of approximately 35 cm. For the measurement of aortic pressure, a fluid-filled catheter was advanced from the left femoral artery into the thoracic aorta. For the measurements of right atrial, pulmonary arterial pressures and blood temperature, a 7-French, pentalumen, thermodilution-tipped catheter was advanced from the left femoral vein and flow-directed into the pulmonary artery. A 7-French catheter was advanced from the left cephalic vein into the great cardiac vein for the measurement of great cardiac vein blood gases and lactate. For inducing VF, a 5-French pacing catheter (EP Technologies, Inc., Mountain View, Calif.) was advanced from the right cephalic vein into the right ventricle.
# The investigators were blinded to the randomization. Cardiac arrest was induced with 1 to 2 mA AC delivered to the endocardium of the right ventricle. Mechanical ventilation was discontinued after onset of VF. At the end of the 7-min interval of untreated VF, precordial compression was started with a pneumatic piston-driven chest compressor (Thumper, Model 1000, Michigan Instruments, Grand Rapids, Mich.). […] The compression force was adjusted to decrease the anterior-posterior diameter of the chest by 25%. After 5 min of precordial compression, defibrillation was attempted with a 150 J biphasic waveform shock delivered between the right infraclavicular area and the cardiac apex. If an organized cardiac rhythm with mean aortic pressure of more than 60 mm Hg persisted for an interval of 5 min or more, the animal was regarded as successfully resuscitated. All animals had restoration of spontaneous circulation (ROSC) after electrical defibrillation, and were then randomized to three treatment groups: (1) propranolol (0.1 mg/kg bolus at 6 min of VF); (2) propranolol plus levosimendan (at 10 min after post resuscitation, 20 μg/kg over 10 min followed by 0.4 μg/kg/min for 220 min); and (3) equal volumes of saline as placebo.
# Measurements were obtained over an interval of 4 hours following resuscitation. After 4 hours, animals were euthanized by intravenous injection of 150 mg kg^−1 pentobarbital. Autopsy was performed to document injuries to the bony thorax and the thoracic and abdominal viscera.
# [5] = compared to saline placebo / control (FIG. 27)
smiles,measurement,setting,value
CC(CCc1ccc(O)cc1)NCCc1ccc(O)c(O)c1 (centres unmarked) [Dobutamine],heart rate,"Male Sprague-Dawley rats [1]; after administration, post-resuscitation",moderate increase in heart rate
same,mean arterial pressure (MAP),Male Sprague-Dawley rats [1]; between the three groups,no significant differences
same,duration of survival,"Male Sprague-Dawley rats [1]; observed over 72 hours, least with saline placebo (FIG. 15)",intermediate
same,cardiac index,Male Sprague-Dawley rats [1]; post-resuscitation (FIG. 13),significant increases in cardiac index
same,dP/dt40,Male Sprague-Dawley rats [1]; vs saline placebo (FIG. 14),Significantly greater
same,−dP/dt,Male Sprague-Dawley rats [1]; vs saline placebo (FIG. 14),Significantly greater
same,heart rate,male domestic pigs [2]; among the three groups,did not differ
same,arterial pressure,male domestic pigs [2]; between levosimendan and dobutamine,no differences in arterial pressure
same,cardiac output,male domestic pigs [2]; vs saline placebo (FIG. 16),Significantly greater cardiac output
same,arterial pressures,"Male Sprague-Dawley rats [3]; among the three groups, at PR10 and after administration of the drugs (FIG. 4)",No significant differences
same,heart rate,Male Sprague-Dawley rats [3]; post-resuscitation (FIG. 5),increases in heart rate of borderline significance
same,cardiac index,Male Sprague-Dawley rats [3]; post-resuscitation (FIG. 6),comparable increases in cardiac index
same,lusitropic (relaxation) effect,Male Sprague-Dawley rats [3]; post-resuscitation (FIG. 10),more profound lusitropic (relaxation) effect
same,stroke volume,"Male Sprague-Dawley rats [3]; post-resuscitation, initially (FIG. 7)",significantly greater stroke volumes
CC(C)NCC(O)COc1cccc2ccccc12 (centres unmarked) [propranolol],postresuscitation ST segment elevation in ECG limb lead 2,male domestic pigs [4]; 5 min after resuscitation (FIG. 26),lesser; also recorded: significantly improved
same,number of postresuscitation premature ventricular beats,male domestic pigs [4]; 5 min interval after ROSC (FIG. 26),significantly lesser number; also recorded: significantly improved
same,FAC,male domestic pigs [4]; [5],significantly increased; also recorded: significantly greater
same,Postresuscitation ejection fractions (EF),male domestic pigs [4]; [5],significantly increased; also recorded: significantly greater
same,total energies of electrical shocks,male domestic pigs [4]; propranolol 0.1 mg/kg bolus at 6 min of VF,significantly lesser total energies
same,number of electrical shocks,male domestic pigs [4]; propranolol 0.1 mg/kg bolus at 6 min of VF (FIG. 26),significantly smaller number; also recorded: significantly improved
